Paper PMC4459817, “Vasculotide reduces endothelial permeability and tumor cell extravasation in the absence of binding to or agonistic activation of Tie2” (EMBO Molecular Medicine, 2015)

How the values were obtained:
[1] = system: lung vascular hyperpermeability in endotoxemic mice; conditions: ref David et al, 2011; cited from earlier work
Text: (§1) For therapeutic use, recombinant variants or mimetics of multimeric Ang1 have been engineered, including Ang1* and Ang-F1-Fc-F1/Bow-Ang1 (Davis et al, [2003]; Daly et al, [2013]), MAT-Ang1 and COMP-Ang1 (Cho et al, [2004]; Koh, [2013]). […] The development of VT was inspired by a 2004 paper, where several heptapeptides—with no sequence homology to Ang1—were identified to have Tie2-binding potential through an ...

[2] = system: mouse model of skin toxicity from cancer radiotherapy; conditions: ref Korpela et al, 2014; cited from earlier work
Text: as §1

[3] = system: in vivo model of abdominal sepsis; conditions: ref Kumpers et al, 2011; cited from earlier work
Text: as §1

Tie2 = conditions: PEGylated VT, earlier reports; ref not printed at the statement; cited from earlier work
Text: as §1

[4] = system: Tie2− tumor cells (LM2-4luc); assay: MTS cell viability assay, tumor cells; assay type: cell-based, human; conditions: 48 h MTS; Supplementary Fig S2 (VT 0.1 to 1000 ng/mL)
Method: TCs were cultured in DMEM High Glucose basal media supplemented with 5% FBS and grown humidified incubators at 37 °C, 21%O2 and 5%CO2 unless otherwise specified. LM2-4 luc is a highly metastatically aggressive variant of the human breast carcinoma MDA-MB-231 cell line (derived through serial in vivo selection of lung metastases from orthotopic implantations in immunodeficient mice) that has been transfected with a firefly luciferase vector (Man et al, 2007; Ebos et al, 2009). HT29luc is a human colon carcinoma cell line also transfected with the luciferase gene (Hackl et al, 2013). SN12luc refers to a luciferase-tagged and highly metastatic clone of a human renal cell carcinoma cell line, SN12-PM6-L1luc (Jedeszko et al, 2015). MeWo is a human melanoma cell line (Ebos et al, 2009).
2. Endothelial cells (ECs) […]
5,000 LM2-4luc or HMVEC-LBl cells, in 100uL of their regular growth media, were seeded per well on a 96-well plate. […] Absorbances were read at 490nm and background-corrected with reference 560nm readings or acellular treatment-only […]
4. […] Protein concentrations in TC-CM vs. control media were measured using: a Quantikine ELISA kit (R&D Systems DVE00) for human VEGF; a FlowCytomix Multiplex kit (eBioscience BMS810FF) for human IL-6 and IL-8; and a BCA protein assay kit (Thermo Scientific) for total protein.

**Q.** What does the source list for “CHHHRHSF [Vasculotide, 4-armed maleimide-functionalized polyethylene glycol (PEG) backbone to link together four cysteine-capped T7 peptides, that is, CHHHRHSF]”?
**A.** inflammatory induction of lung vascular hyperpermeability [1]: prevented inflammatory induction of lung vascular hyperpermeability; wound healing [2]: promoted wound healing; intraperitoneal leukocyte influx [3]: reduced intraperitoneal leukocyte influx; Tie2 phosphorylation (Tie2): reportedly activates Tie2 phosphorylation; cytotoxic effect on TCs / viability [4]: no direct cytotoxic effect
